# Measured values: US12685708B2, “Skin care composition” (BEIERSDORF AG, priority 2019, dated 2026)
# Assays:
# Format in all cases: cell-based, Cutibacterium acnes
# C. acnes strain C3 = experiment: Evaluation of the minimum inhibitory concentration (MIC) of cosmetic excipients; details: % w/vol, incubated anaerobically 3 days at 37° C., scored for growth or complete growth inhibition
# Description: (§1) In microbiology, the MIC is the lowest concentration of a chemical which prevents visible growth of bacterium. The resulted MIC value depends both on the microorganism and the test compound. The MIC is determined by preparing concentrations series of the test compound in vitro, incubating the solutions with the separate batches of cultured bacteria, and measuring the results using agar dilution or broth microdilution. For the experiments with C. acnes strains C3 and K8, media comprising yeast extract soy peptone and dextrose were used. The MIC is determined by turbidity.
# (§2) A total of 125 cosmetic excipients were tested for their compatibility with C. acnes strains C3 and K8. Hydrophilic compounds were tested in a 96-well plate liquid broth format, poorly soluble compounds were pre-dissolved in DMSO before dilution in liquid broth and hydrophobic or solid compounds were tested in an agar well diffusion test assay. The different dilutions of the test excipients in media were prepared in Falcon tubes and then distributed in a deep well plate using a multistepper. Each well received 1.2 ml and was subsequently inoculated with 120 μl of C. acnes bacteria suspension (strain C3 and K8). From the deep well plate 200 μl were transferred in each well of a clear 96 well replicate plate. The leftover was discarded. The plates were then incubated anaerobically for 3 days at 37° C. Following incubation, the test plates were visually examined and wells were scored for growth or complete growth inhibition to define the minimum inhibitory concentration.
# (§3) These excipients are listed in the below table with their compatibility values for C. acnes strains C3 and K8. The compatibility values represent the MIC value of the listed ingredients with the tested C. acnes strains. At this concentration [% w/vol] the tested compound starts interfering with the growth of the tested strains. The compounds can be used in formulations at concentrations below this concentration.
# C. acnes strain K8 = experiment: as above; details: % w/vol, incubated anaerobically 3 days at 37° C., scored for growth or complete growth inhibition
# Description: as §1, §2, §3
# [1] = tested on: freeze-dried C. acnes strains K8 and C3; experiment: Reactivation assay of freeze dried bacteria in formulations (CFU count); details: statement in the description
# Text: For this purpose, a freeze-dried powder of C. acnes strains K8 and C3 was produced and mixed with other ingredients as indicated below. Ingredients are listed in % (w/w). The formulations were provided in two pre-mixed compositions A and B that were finally mixed with each other. The following formulations were made: […]
# The formulations are depicted in the form of a table in FIG. 1. For formulations 1-11, the CFU target value was 1×10^7. For formulations 12-15, the CFU target value was 1×10^6. A CFU count was performed directly after mixing the formulation to assess the effect of the prototype formulation on the revival and subsequent stability rate of the bacteria. Briefly, the formula component A (lyophilisate/oil suspension) and the formula component B (hydrogel/aqueous solution) are mixed together and well vortexed. Directly after mixing an aliquot is removed and transferred to 0.9% NaCl. Further dilutions are plated on COST agar plates and incubated anaerobically at 37° C. for 5 days.
# Similar to the formulations tested in Example 2, another set of 11 prototype formulations was prepared with higher concentrations of the excipients of the invention. The formulations were tested as described in Example 2 for their impact on reactivation of freeze-dried C. acnes bacteria. As a control, a formulation containing the lyophilisate and low amounts of the excipients was prepared. […]
Compound,COMPATABILITY VALUE C3 [%] (MIC) (C. acnes strain C3),COMPATABILITY VALUE K8 [%] (MIC) (C. acnes strain K8),interference with viability and replication capability of the lyophilized or spray-dried bacteria [1]
CC(=O)Oc1c(C)c(C)c2c(c1C)CCC(C)(CCC[C@H](C)CCC[C@H](C)CCCC(C)C)O2 (stereo partly drawn) [tocopheryl acetate],1.00,1.00,–
CCCCCCC(O)CO (stereo not drawn) [caprylyl glycol],0.18,0.18,–
peg-40 hydrogenated castor oil,1.00,1.00,does not interfere
O=C(O)CC(O)(CC(=O)O)C(=O)O [citric acid],0.33,0.08,–
CC(CO)CO [methylpropanediol],4.00,4.00,–
tocopherol,1.50,1.50,–
ethylhexyl cocoate,10.00,10.00,–
